Target: Sterol O-acyltransferase 1 / ACAT1 (Homo sapiens) (UniProt P35610)
Experiment: Inhibition of human ACAT1

Sterol O-acyltransferase 1 / ACAT1 (Homo sapiens), sequence (P35610 whole entry, looked up): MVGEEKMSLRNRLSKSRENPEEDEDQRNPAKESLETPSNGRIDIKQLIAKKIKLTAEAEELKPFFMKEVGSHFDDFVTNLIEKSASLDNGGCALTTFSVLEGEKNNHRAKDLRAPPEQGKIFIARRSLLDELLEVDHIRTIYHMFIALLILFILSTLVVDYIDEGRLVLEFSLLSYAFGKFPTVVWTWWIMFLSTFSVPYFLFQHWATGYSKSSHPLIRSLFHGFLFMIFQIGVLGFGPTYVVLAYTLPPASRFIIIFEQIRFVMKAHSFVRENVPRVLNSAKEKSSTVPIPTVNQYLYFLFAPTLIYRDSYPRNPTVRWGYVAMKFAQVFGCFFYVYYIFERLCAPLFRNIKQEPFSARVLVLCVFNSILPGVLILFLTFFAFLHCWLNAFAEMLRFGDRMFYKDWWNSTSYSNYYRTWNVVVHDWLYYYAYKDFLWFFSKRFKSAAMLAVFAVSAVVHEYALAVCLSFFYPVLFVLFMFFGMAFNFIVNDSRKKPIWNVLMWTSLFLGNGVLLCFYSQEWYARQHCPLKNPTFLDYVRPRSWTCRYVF

IC50 [µM] | SMILES
> 10 | O=C(O)[C@H]1CC[C@H](Oc2ccc(-c3ccc(-c4nc5ccc(F)cc5[nH]4)cn3)cn2)CC1
6.07 | O=C(O)[C@H]1CC[C@H](Oc2ccc(-c3ccc(-c4nc5ccccc5[nH]4)cn3)cn2)CC1
1.34 | O=C(O)[C@H]1CC[C@H](Oc2ccc(-c3ccc(-c4nc5ccc(Cl)cc5[nH]4)cn3)cn2)CC1
0.293 | O=C(O)C[C@H]1CC[C@H](c2ccc(-c3ccc(-c4nc5ccc(C(F)(F)F)cc5[nH]4)cn3)cc2)CC1
> 10 | O=C(O)[C@H]1CC[C@@H](Oc2ccc(-c3ccc(-c4nc5cc(F)c(F)cc5[nH]4)cn3)cn2)CC1
8.08 | O=C(O)[C@H]1CC[C@@H](Oc2ccc(-c3ccc(-c4nc5ccccc5[nH]4)cn3)cn2)CC1
3.53 | O=C(O)[C@H]1CC[C@@H](Oc2ccc(-c3ccc(-c4nc5ccc(Cl)cc5[nH]4)cn3)cn2)CC1
> 10 | O=C(O)[C@H]1CC[C@@H](Oc2ccc(-c3ccc(-c4nc5ccc(F)cc5[nH]4)cn3)cn2)CC1
> 10 | N#Cc1ccc2nc(-c3ccc(-c4ccc(O[C@H]5CC[C@H](C(=O)O)CC5)nc4)nc3)[nH]c2c1
4.9 | COc1ccc2[nH]c(-c3ccc(-c4ccc(O[C@H]5CC[C@H](C(=O)O)CC5)nc4)nc3)nc2n1
> 10 | CS(=O)(=O)c1ccc2nc(-c3ccc(-c4ccc(O[C@H]5CC[C@H](C(=O)O)CC5)nc4)nc3)[nH]c2c1
0.167 | O=C(O)C[C@H]1CC[C@H](c2ccc(-c3ccc(-c4nc5ccc(Cl)cc5[nH]4)cn3)cc2)CC1
1.09 | O=C(O)[C@H]1CC[C@@H](Oc2ccc(-c3ccc(-c4nc5ccc(C(F)(F)F)cc5[nH]4)cn3)cn2)CC1
> 10 | N#Cc1ccc2nc(-c3ccc(-c4ccc(O[C@H]5CC[C@@H](C(=O)O)CC5)nc4)nc3)[nH]c2c1
2.48 | COc1ccc2[nH]c(-c3ccc(-c4ccc(O[C@H]5CC[C@@H](C(=O)O)CC5)nc4)nc3)nc2n1
0.772 | O=C(O)[C@H]1CC[C@@H](Oc2ccc(-c3ccc(-c4nc5ccc(OC(F)(F)F)cc5[nH]4)cn3)cn2)CC1
> 10 | CS(=O)(=O)c1ccc2nc(-c3ccc(-c4ccc(O[C@H]5CC[C@@H](C(=O)O)CC5)nc4)nc3)[nH]c2c1
1.23 | O=C(O)[C@H]1CC[C@H](Oc2ccc(-c3ccc(-c4nc5ccc(C(F)(F)F)cc5[nH]4)cn3)cn2)CC1
8.44 | O=C(O)[C@H]1CC[C@H](Oc2ccc(-c3ccc(-c4nc5cc(F)c(F)cc5[nH]4)cn3)cn2)CC1

— BindingDB's records for doi:10.1021/ml400168h (Merck Research Laboratories, 2013)
